Laboratory results as given in US10865194B2, “Therapeutically active bicyclic-sulphonamides and pharmaceutical compositions” (FONDAZIONE ISTITUTO ITALIANO DI TECNOLOGIA, priority 2017, dated 2020).
Like-named read-outs stand apart in the source and are kept apart here.

How the values were obtained:
Neuro2A cells = experiment: Inhibition of ROS production in Neuro2A cells (H2O2-induced, DCFH-DA fluorescence); assay type: cell-based; settings: for Inhibition of ROS production in neuro 2A cells, 5 μM (inhibition) / inhibition at 5 µM: compound 5 μM; for Inhibition of ROS production in neuro 2A cells, 10 μM (inhibition) / inhibition at 10 µM: compound 10 μM; for inhibition at 5 µM / inhibition at 10 µM: Mus musculus, N2a; for inhibition at 5 µM: ROS induced with 0.2 mM H2O2, read-out: Inhibition of ROS production in neuro 2A cells, 5 μM (inhibition); for inhibition at 10 µM: ROS induced with 0.2 mM H2O2, read-out: Inhibition of ROS production in neuro 2A cells, 10 μM (inhibition)
Experimental: The experiments carried out to evaluate the inhibition of ROS production using the compounds of the invention were based on the method reported by Danli W. and Patricia Yotnda in Production and Detection of Reactive Oxygen Species (ROS) in Cancers, J. Vis Exp. 2011; (57):3357.
Cultured brain Neuroblastoma2A (Neuro2A) were used.
15.000 Cells were plated in a 96 well plate with black walls and transparent flat bottom in 100 μL of DMEM complete medium (including 10% fetal bovine serum, […] L-Glutamine) containing compounds at indicated concentrations or 0.5% dimethylsulfoxide (DMSO), and kept overnight at 37° C. to allow them to attach to the plate. The following day the culture medium was removed, cells were washed with 100 μl of Phosphate Buffer Saline, pH 7.4 (PBS) and loaded with 100 μL of PBS containing 10 μM of dichloro-dihydro-fluorescein diacetate (DCFH-DA) and compounds at the indicated concentrations (or DMSO 0.5%) for additional 45 min at 37° C. DCFH-DA was prepared as a 20 mM stock in (DMSO) and kept in the dark at 4° C.
ROS production was induced by exposure with 0.2 mM H2O2 dissolved in 100 μl of complete DMEM medium without phenol red. Fluorescence intensity was measured at an […] wavelengths of 485/535 nm and ROS production was monitored for 2 h, at 37° C.

human NAAA = molecular target: T1, human NAAA (Homo sapiens, UniProt Q02083); experiment: In vitro human NAAA fluorogenic assay; assay type: biochemical; settings: enzyme-enriched lysate of HEK-293 cells stably transfected with human NAAA
T1 construct: expressed in transfected cells; host or cells: HEK-293 (stably transfected, G418 selection); enzyme-enriched lysate
T1 sequence (Q02083 126-359 limits assumed): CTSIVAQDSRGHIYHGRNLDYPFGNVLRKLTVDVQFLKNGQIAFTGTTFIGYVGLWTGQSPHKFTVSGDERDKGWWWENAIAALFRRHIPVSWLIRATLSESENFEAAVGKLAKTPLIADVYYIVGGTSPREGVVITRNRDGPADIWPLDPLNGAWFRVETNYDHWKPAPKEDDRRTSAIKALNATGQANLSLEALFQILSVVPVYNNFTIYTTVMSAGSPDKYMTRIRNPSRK
T1 sequence (Q02083 29-125 limits assumed): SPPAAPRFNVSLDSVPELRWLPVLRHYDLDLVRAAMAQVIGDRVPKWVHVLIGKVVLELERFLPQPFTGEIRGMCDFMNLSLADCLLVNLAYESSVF
Experimental: Human recombinant proteins were obtained from HEK-293 stable overexpressing NAAA cell lines. Cells were grown in Dulbecco's modified Eagle medium (DMEM) containing 10% FBS, 1% penicillin/streptomycin, 1% glutamine and 500 μg/mL G418. To obtain membrane preparation cells were scraped off with cold phosphate-buffered saline (PBS) and collected by centrifugation (300×g, 7 min, 4° C.). Cell pellet were stored at −80° C. until protein preparation.
In Vitro Human NAAA Assay
Preparation of Enzyme-Enriched Lysate (h-NAAA).
HEK-293 cells stably transfected with the human NAAA coding sequences were used as enzyme source. Cell pellets were suspended in 20 mM Tris HCl (pH 7.4) with 0.32 M sucrose, sonicated and centrifuged at 800×g for 30 min at 4° C. Supernatants were then ultracentrifuged at 12,000×g for 30 min at 4° C. Pellets were re-suspended in PBS buffer (pH 7.4) and subjected to three freeze-thaw cycles at −80° C. The suspension was finally ultracentrifuged at 105,000×g for 1 h at 4° C., supematants were collected, protein concentration was measured and samples aliquoted and stored at −80° C. until use.
The results are summarized in Table 3 as follows, wherein +: IC50>2 μM; ++: 1.0 μM<IC50<2 μM; +++: IC50<1 μM: […]

[1] = Activity h-NAAA Fluorogenic assay
[2] = read-out: Activity h-NAAA Fluorogenic assay

| Compound | Inhibition of ROS production in neuro 2A cells, 5 μM (inhibition) (Neuro2A cells; ROS induced with 0.2 mM H2O2) [%] | Inhibition of ROS production in neuro 2A cells, 10 μM (inhibition) (Neuro2A cells; ROS induced with 0.2 mM H2O2) [%] | IC50 (human NAAA; [1]) [µM] | IC50 (human NAAA; [2]) [µM] | inhibition at 5 µM (Neuro2A cells) [%] | inhibition at 10 µM (Neuro2A cells) [%] | Inhibition of ROS production in neuro 2A cells (inhibition), reference at 100 μM (Neuro2A cells; reference compound 100 μM, ROS induced with 0.2 mM H2O2) [%] |
| --- | --- | --- | --- | --- | --- | --- | --- |
| CCCCc1ccc(OC2CC3CCC(C2)N3S(=O)(=O)c2c(C)n[nH]c2C)cc1 [Example 03, (1R,3s,5S)-3-(4-Butylphenoxy)-8-[(3,5-dimethyl-1H-pyrazol-4-yl)sulfonyl]-8-azabicyclo[3.2.1]octane] | 39 | 136 | > 2 | – | – | – | – |
| Cc1n[nH]c(C)c1S(=O)(=O)N1C2CCC1CC(Oc1ccc(C#N)cc1)C2 [Example 08, (1R,3r,5S)-3-(4-Cyanophenoxy)-8-[(3,5-dimethyl-1H-pyrazol-4-yl)sulfonyl]-8-azabicyclo[3.2.1]octane] | 0 | 77 | – | < 1 | – | – | – |
| Cc1n[nH]c(C)c1S(=O)(=O)N1C2CCC1CC(Oc1ccc(C#N)cc1)C2 [Example 09, (1R,3s,5S)-3-(4-Cyanophenoxy)-8-[(3,5-dimethyl-1H-pyrazol-4-yl)sulfonyl]-8-azabicyclo[3.2.1]octane] | 35 | 56 | – | > 2 | – | – | – |
| CCCCc1ccc(OC2CC3CCC(C2)N3S(=O)(=O)c2c(C)noc2C)cc1 [Example 15, 4-[[(1R,3r,5S)-3-(4-Butylphenoxy)-8-azabicyclo[3.2.1]octan-8-yl]sulfonyl]-3,5-dimethyl-isoxazole] | – | – | – | > 2 | 0 | 84 | – |
| CCCCc1cnc(OC2CC3CCC(C2)N3S(=O)(=O)c2c(C)n[nH]c2C)cn1 [Example 40, (1R,3r,5S)-8-[(3,5-Dimethyl-1H-pyrazol-4-yl)sulfonyl]-3-[5-butylpyrazin-2-yl]oxy-8-azabicyclo[3.2.1]octane] | – | – | – | < 1 | 19 | 86 | – |
| Cc1n[nH]c(C)c1S(=O)(=O)N1C[C@H]2CCC[C@@H](C1)[C@H]2Oc1cnccn1 [Example 51, (1R,5S,9r)-3-((3,5-Dimethyl-1H-pyrazol-4-yl)sulfonyl)-9-(pyrazin-2-yloxy)-3-azabicyclo[3.3.1]nonane] | 0 | 21 | – | > 2 | – | – | – |
| Cc1n[nH]c(C)c1S(=O)(=O)N1C[C@H]2CCC[C@@H](C1)[C@@H]2Oc1cnccn1 [Example 52, (1R,5S,9s)-3-((3,5-Dimethyl-1H-pyrazol-4-yl)sulfonyl)-9-(pyrazin-2-yloxy)-3-azabicyclo[3.3.1]nonane] | 9 | 27 | – | < 1 | – | – | – |
| CCCCc1ccc(OC2CC3CCC(C2)N3S(=O)(=O)c2c(C)n[nH]c2C)cc1 [Example 54, (1R,3r,5S)-3-(4-Butylphenoxy)-8-[(3,5-dimethyl-1H-pyrazol-4-yl)sulfonyl]-8-azabicyclo[3.2.1]octane] | 17 | 114 | < 1 | – | – | – | – |
| O=C(/C=C/c1ccc(O)c2c1[C@H](C(=O)O[C@H](Cc1ccc(O)c(O)c1)C(=O)O)[C@@H](c1ccc(O)c(O)c1)O2)O[C@H](Cc1ccc(O)c(O)c1)C(=O)O [Salvianolic Acid B, Salvianolic acid B, reference compound] | – | – | – | – | – | – | 100 |
